Measurements: US20100204152A1, “USE OF GLUTEN EXORPHIN C : AS A THERAPEUTIC AGENT” (priority 2007, published 2010)
Where no end group is shown, it is not given here.

Legend:
HCMV strain AD169 = assay: HCMV plaque formation assay in MRC-5 cells; details: for inhibition of HCMV plaque formation as compared to the virus control: 10 micrograms per ml, 7-10 days
[1] = tested on: hepatitis B virus (HBV) ayw strain in HepG2-2.2.15 cells; assay: HBV experimental assay system (secreted HBV DNA, TaqMan PCR); assay type: cell-based; details: 10 micrograms per ml, six days, HBV DNA by TaqMan PCR
Excerpt: HepG2-2.2.15 is a stable cell line containing the hepatitis B virus (HBV) ayw strain genome (ATCC Cat. No. CRL-11997). Antiviral compounds blocking any late step of viral replication such as transcription, translation, pregenome encapsidation, reverse transcription, particle assembly and release can be identified and characterized using this cell line. In this assay, an active compound will reduce the production of secreted HBV from cells, measured by utilizing real time quantitative PCR (TaqMan) assay to directly and accurately measure HBV DNA copies.
HepG2-2.2.15 cells were plated in 96-well microtiter plates. After 16-24 hours the confluent monolayer of HepG2-2.2.15 cells was washed and the medium was replaced with complete medium containing test peptides—10 micrograms per ml—in duplicate. […] Six days following the initial administration of the peptides, the cell culture supernatants was collected, treated with pronase and DNAse and then used in a real-time quantitative TaqMan PCR assay. The PCR-amplified HBV DNA was detected in real-time by monitoring increases in fluorescence signals that result from the exonucleolytic degradation of a quenched fluorescence probe molecule that hybridizes to the amplified HBV DNA. […] Antiviral activity was calculated from the reduction in HBV DNA levels (% virus control). […]

RAW 264.7 cells = assay: Phagocytosis assay; assay type: cell-based, mouse; details: 10 micrograms per ml, Fluorescein-labeled Escherichia coli, flow cytometry
spleen cells = assay: Th1/Th2 cytokine profiling assay; assay type: cell-based, Balb/c mice; details: 10 micrograms per ml; Ovalbumin restimulation; 72 hours; supernatant
Excerpt: The Balb/c mice (originated in 1923, it is a popular strain and is used in many different research disciplines. Also classified as an inbred from the production of 20 or more successive brother-sister matings, the Balb/c mouse is albino and small in size) were immunized on Days 1, 15, and 29 with Ovalbumin (Ovalbumin is the main protein found in egg white, commonly used to stimulate an immunological reaction in test animals) in PBS (5 micrograms/injection). On day 50, spleens of the mice were harvested (3 weeks after last boost with Ovalbumin). Cells were cultured (2×10^5/well in triplicate) and incubated with culture medium or test peptides—10 micrograms per ml—for 30 min. Thereafter, additional Ovalbumin was added to the cells at 10 micrograms/ml for in vitro restimulation of the cells. 72 hours later, cell supernatants were harvested and assayed using the Becton Dickinson Mouse Th1/Th2 Cytokine CBA Kit. This kit can be used to measure Interleukin-2 (IL-2), Interleukin-4 (IL-4), Interleukin-5 (IL-5), Interferon-γ (IFN-γ), and Tumor Necrosis Factor-α (TNF-α) protein levels in a single sample. The kit performance has been optimized for analysis of physiologically relevant concentrations (pg/ml levels) of specific cytokine proteins in tissue culture supernatants and serum samples.

[2] = tested on: LPS-induced TNF-alpha production in human macrophages; assay: TNF alpha production assay; assay type: cell-based; details: 10 micrograms per ml; 30 min preincubation; lipopolysaccharide 200 ng/ml; overnight; ELISA
Excerpt: Not stimulated macrophages served as negative background control.

HUVEC = assay: Endothelial tube formation assay; assay type: cell-based, human; details: 10 micrograms per ml, 20 hours, average tubule length
Excerpt: Positive control was vehicle only.

[3] = tested on: Primary Human endothelial cells (HUVEC); assay: Endothelial cell migration assay; assay type: cell-based; details: 10 micrograms per ml, 22 hours
Method: Thereafter, designated concentration of testing peptides—10 micrograms per ml—was added in duplicate wells.

Nc1nc(O)c2ncn(COC(CO)CO)c2n1 [Ganciclovir, reference compound]
antiviral activity of positive control compound (HCMV) (HCMV strain AD169; positive control): expected levels of antiviral activity

Tyr-Pro-Ile-Ser-Leu-OH (YPISL-OH) [peptide 2]
inhibition of HBV replication as compared to the virus control infection [1]: 41.4%
effect on the phagocytic activity of murine macrophages (increase) (RAW 264.7 cells): no inhibitory or activating effect
IFNγ spleen cells; TH1 response (% of control) (spleen cells): 53.9 % of control
IL-2 spleen cells (% of control) (spleen cells): 124.0 % of control
IL-4 spleen cells; TH2 response (% of control) (spleen cells): 94.1 % of control
IL-5 spleen cells; TH2 response (% of control) (spleen cells): 86.6 % of control
TNF-a spleen cells; TH1 response (% of control) (spleen cells): 126.2 % of control
inhibition of the LPS-induced TNF-alpha production in human macrophages [2]: did not induced or inhibit
inhibition of the tube formation of endothelial cells (HUVEC): 100%
inhibition of HCMV plaque formation as compared to the virus control (HCMV strain AD169): did not inhibit

AVPYPQR [peptide 1]
inhibition of HBV replication as compared to the virus control infection [1]: no effect
effect on the phagocytic activity of murine macrophages (increase) (RAW 264.7 cells): 22.9%
IFNγ spleen cells; TH1 response (% of control) (spleen cells): 52.4 % of control
IL-2 spleen cells (% of control) (spleen cells): 55.7 % of control
IL-4 spleen cells; TH2 response (% of control) (spleen cells): 0.0 % of control
IL-5 spleen cells; TH2 response (% of control) (spleen cells): 53.0 % of control
TNF-a spleen cells; TH1 response (% of control) (spleen cells): 86.6 % of control
inhibition of the LPS-induced TNF-alpha production in human macrophages [2]: 22.4%
inhibition of the migration of human endothelial cells [3]: 35%
inhibition of the tube formation of endothelial cells (HUVEC): 18%
inhibition of HCMV plaque formation as compared to the virus control (HCMV strain AD169): did not inhibit
